Paper PMC12474298 (Viruses, 2025)

Legend:
IMPα3 (human IMPα3ΔIBB) = target: T1, IMPα3 (human IMPα3ΔIBB) (Homo sapiens, UniProt O00629); experiment: Fluorescence polarization assay, FITC-NLS peptide vs importin α3ΔIBB
T1 sequence (O00629 64-521 limits assumed): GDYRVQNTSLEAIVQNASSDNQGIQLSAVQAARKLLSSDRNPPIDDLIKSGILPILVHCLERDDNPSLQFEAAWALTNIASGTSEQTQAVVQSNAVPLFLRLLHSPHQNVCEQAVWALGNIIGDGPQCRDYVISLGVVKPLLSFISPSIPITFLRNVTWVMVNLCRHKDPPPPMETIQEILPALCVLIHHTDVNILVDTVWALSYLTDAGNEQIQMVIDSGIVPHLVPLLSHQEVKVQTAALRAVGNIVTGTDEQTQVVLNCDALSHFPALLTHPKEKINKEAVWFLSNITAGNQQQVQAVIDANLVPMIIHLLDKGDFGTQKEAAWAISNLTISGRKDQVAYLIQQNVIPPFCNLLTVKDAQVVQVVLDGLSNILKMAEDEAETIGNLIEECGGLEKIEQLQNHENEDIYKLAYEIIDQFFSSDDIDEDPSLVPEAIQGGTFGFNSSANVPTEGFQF

IMPα1 (human IMPα1ΔIBB) = IMPα1 (human IMPα1ΔIBB) (Homo sapiens, UniProt P52292); experiment: Fluorescence polarization assay, FITC-NLS peptide vs importin α1ΔIBB

`CC[C@H](C)[C@H](NC(=O)[C@H](CCCNC(=N)N)NC(=O)[C@H](CCCNC(=N)N)NC(=O)[C@H](CCCNC(=N)N)NC(=O)[C@H](CCCCN)NC(=O)[C@H](CCCCN)NC(=O)[C@@H](NC(=O)[C@H](CCC(=O)O)NC(=O)CCCCCNC(=S)Nc1ccc2c(c1)C(=O)OC21c2ccc(O)cc2Oc2cc(O)ccc21)[C@@H](C)O)C(=O)N[C@@H](CC(C)C)C(=O)N[C@@H](CCC(=O)O)C(N)=O` [HaHV1 UL36h NLS] was tested. Which Kd (IMPα3 (human IMPα3ΔIBB)) did it give?
Its Kd is 193 nM.

What about the Kd (IMPα1 (human IMPα1ΔIBB)) of the same molecule?
The Kd was 226 nM.
